This is an account of results in paper PMC5218480 (PLoS ONE, 2017).

For this experiment, the system named is MV-4-11 cells. Briefly: Gene expression microarray analysis (Affymetrix PrimeView) and GSEA. It is filed as cell-based, human. Also noted: RFU PODN (11730768_x_at) / Fold change /veh PODN (11730768_x_at) / RFU LINC00158 (11744669_a_at) / Fold change /veh LINC00158 (11744669_a_at) / RFU DUSP10 (11751237_a_at) / Fold change /veh DUSP10 (11751237_a_at) / RFU ID3 (11757404_x_at) / Fold change /veh ID3 (11757404_x_at) / RFU PLEKHG5 (11737974_s_at) / Fold change /veh PLEKHG5 (11737974_s_at) / RFU LRRC4B (11730491_at) / Fold change /veh LRRC4B (11730491_at) / RFU GIMAP4 (11747438_a_at) / Fold change /veh GIMAP4 (11747438_a_at) / RFU KRT8 (11758183_x_at) / Fold change /veh KRT8 (11758183_x_at) / RFU CNN1 (11734310_a_at) / Fold change /veh CNN1 (11734310_a_at) / RFU VPS37D (11726825_at) / Fold change /veh VPS37D (11726825_at) / RFU C10orf10 (11716522_x_at) / Fold change /veh C10orf10 (11716522_x_at) / RFU KIR2DL2 /// KIR2DL4 /// KIR2DL5A /// KIR2DL5B /// KIR2DS1 /// KIR2DS2 /// KIR2DS3 /// KIR2DS4 /// KIR3DL3 /// KIR3DL3 /// KIR3DS1 (11738374_at) / Fold change /veh KIR2DL2 /// KIR2DL4 /// KIR2DL5A /// KIR2DL5B /// KIR2DS1 /// KIR2DS2 /// KIR2DS3 /// KIR2DS4 /// KIR3DL3 /// KIR3DL3 /// KIR3DS1 (11738374_at) / RFU C1QL1 (11718748_at) / Fold change /veh C1QL1 (11718748_at) / RFU TMPRSS4 (11747572_a_at) / Fold change /veh TMPRSS4 (11747572_a_at) / RFU HAMP (11756126_x_at) / Fold change /veh HAMP (11756126_x_at) / RFU RNFT2 (11725882_a_at) / Fold change /veh RNFT2 (11725882_a_at) / RFU NR4A2 (11747474_a_at) / Fold change /veh NR4A2 (11747474_a_at) / RFU ABCC12 (11746883_a_at) / Fold change /veh ABCC12 (11746883_a_at) / RFU TMEM136 (11760407_x_at) / Fold change /veh TMEM136 (11760407_x_at) / RFU CLDN22 /// WWC2 (11732394_at) / Fold change /veh CLDN22 /// WWC2 (11732394_at) / RFU HLA-DPB1 (11760878_x_at) / Fold change /veh HLA-DPB1 (11760878_x_at) / RFU SPINT1 (11716480_a_at) / Fold change /veh SPINT1 (11716480_a_at) / RFU GAP43 (11754022_s_at) / Fold change /veh GAP43 (11754022_s_at) / RFU A4GNT (11735810_at) / Fold change /veh A4GNT (11735810_at) / RFU PRB3 (11715151_x_at) / Fold change /veh PRB3 (11715151_x_at) / RFU TUBB4B (11761932_at) / Fold change /veh TUBB4B (11761932_at) / RFU CAPN14 (11732068_a_at) / Fold change /veh CAPN14 (11732068_a_at) / RFU TMCC2 (11721928_a_at) / Fold change /veh TMCC2 (11721928_a_at) / RFU IRGQ (11745062_a_at) / Fold change /veh IRGQ (11745062_a_at) / RFU FAM174B (11720279_a_at) / Fold change /veh FAM174B (11720279_a_at) / RFU TMPRSS4 (11748680_a_at) / Fold change /veh TMPRSS4 (11748680_a_at) / RFU FAM212B (11763350_a_at) / Fold change /veh FAM212B (11763350_a_at) / RFU PLEKHG5 (11743358_a_at) / Fold change /veh PLEKHG5 (11743358_a_at) / RFU ZSCAN30 (11745921_a_at) / Fold change /veh ZSCAN30 (11745921_a_at) / RFU CMKLR1 (11741424_a_at) / Fold change /veh CMKLR1 (11741424_a_at) / RFU LOC101060620 /// MAPK8IP1 (11723275_at) / Fold change /veh LOC101060620 /// MAPK8IP1 (11723275_at) / RFU SPTSSB (11747773_x_at) / Fold change /veh SPTSSB (11747773_x_at) / RFU PRSS12 (11739890_at) / Fold change /veh PRSS12 (11739890_at) / RFU BIN1 (11741810_x_at) / Fold change /veh BIN1 (11741810_x_at) / RFU WNT11 (11732464_a_at) / Fold change /veh WNT11 (11732464_a_at) / RFU C10orf10 (11716521_a_at) / Fold change /veh C10orf10 (11716521_a_at) / RFU C5orf56 (11738089_at) / Fold change /veh C5orf56 (11738089_at) / RFU CYB561 (11721691_x_at) / Fold change /veh CYB561 (11721691_x_at) / RFU ANKRD19P (11752326_a_at) / Fold change /veh ANKRD19P (11752326_a_at) / RFU OR2T12 /// OR2T33 /// OR2T8 (11738714_s_at) / Fold change /veh OR2T12 /// OR2T33 /// OR2T8 (11738714_s_at) / RFU VCAN (11748164_a_at) / Fold change /veh VCAN (11748164_a_at) / RFU JSRP1 (11732532_at) / Fold change /veh JSRP1 (11732532_at) / RFU KRTAP10-11 (11738290_x_at) / Fold change /veh KRTAP10-11 (11738290_x_at) / RFU MYO3A (11730013_a_at) / Fold change /veh MYO3A (11730013_a_at) / RFU EBF3 (11725865_a_at) / Fold change /veh EBF3 (11725865_a_at) / RFU CAMK2N1 (11719241_x_at) / Fold change /veh CAMK2N1 (11719241_x_at) / RFU C5orf56 (11738088_a_at) / Fold change /veh C5orf56 (11738088_a_at) / RFU OLFML3 (11715873_a_at) / Fold change /veh OLFML3 (11715873_a_at) / RFU LOC100653217 /// NTM (11731650_a_at) / Fold change /veh LOC100653217 /// NTM (11731650_a_at) / RFU MAPK11 (11762145_a_at) / Fold change /veh MAPK11 (11762145_a_at) / RFU FIZ1 (11724087_x_at) / Fold change /veh FIZ1 (11724087_x_at) / RFU OASL (11726364_x_at) / Fold change /veh OASL (11726364_x_at) / RFU SOX15 (11748057_x_at) / Fold change /veh SOX15 (11748057_x_at) / RFU CD79A (11719716_a_at) / Fold change /veh CD79A (11719716_a_at) / RFU HIST1H1D (11736915_at) / Fold change /veh HIST1H1D (11736915_at) / RFU CASKIN2 (11723855_a_at) / Fold change /veh CASKIN2 (11723855_a_at) / RFU LOC730098 (11760151_x_at) / Fold change /veh LOC730098 (11760151_x_at) / RFU OR4N2 (11742367_at) / Fold change /veh OR4N2 (11742367_at) / RFU PRRT2 (11749266_a_at) / Fold change /veh PRRT2 (11749266_a_at) / RFU SNX32 (11753110_a_at) / Fold change /veh SNX32 (11753110_a_at) / RFU CDHR5 (11726645_a_at) / Fold change /veh CDHR5 (11726645_a_at) / RFU RCAN1 (11760418_a_at) / Fold change /veh RCAN1 (11760418_a_at) / RFU FAM167A (11723789_a_at) / Fold change /veh FAM167A (11723789_a_at) / RFU FAM26E (11764081_at) / Fold change /veh FAM26E (11764081_at) / RFU ISYNA1 (11749810_s_at) / Fold change /veh ISYNA1 (11749810_s_at) / RFU ACY1 (11761880_at) / Fold change /veh ACY1 (11761880_at) / RFU 11764098_at / Fold change /veh 11764098_at / RFU SAMD14 (11745864_x_at) / Fold change /veh SAMD14 (11745864_x_at) / RFU NPB (11741838_a_at) / Fold change /veh NPB (11741838_a_at) / RFU TMPRSS6 (11731388_a_at) / Fold change /veh TMPRSS6 (11731388_a_at) / RFU KRTAP10-2 (11738614_at) / Fold change /veh KRTAP10-2 (11738614_at) / RFU ARHGAP8 /// PRR5-ARHGAP8 (11727945_x_at) / Fold change /veh ARHGAP8 /// PRR5-ARHGAP8 (11727945_x_at) / RFU KRTAP5-7 /// NADSYN1 (11734609_at) / Fold change /veh KRTAP5-7 /// NADSYN1 (11734609_at) / RFU RASL12 (11751679_a_at) / Fold change /veh RASL12 (11751679_a_at) / RFU CDKN2B (11736163_a_at) / Fold change /veh CDKN2B (11736163_a_at) / RFU PRF1 (11729649_at) / Fold change /veh PRF1 (11729649_at) / RFU, ZNF638 /// ZNF638-IT1 / Fold change vs veh, ZNF638 /// ZNF638-IT1 / RFU, PANK3 / Fold change vs veh, PANK3 / RFU, SH3YL1 / Fold change vs veh, SH3YL1 / RFU, ZEB2 / Fold change vs veh, ZEB2 / RFU, NRIP1 / Fold change vs veh, NRIP1 / RFU, PTTG1IP / Fold change vs veh, PTTG1IP / RFU, CAPN2 / Fold change vs veh, CAPN2 / RFU, MED14 / Fold change vs veh, MED14 / RFU, SNORA58 / Fold change vs veh, SNORA58 / RFU, C1orf63 / Fold change vs veh, C1orf63 / RFU, LRRFIP1 / Fold change vs veh, LRRFIP1 / RFU, NDUFAF7 / Fold change vs veh, NDUFAF7 / RFU, SLC12A2 / Fold change vs veh, SLC12A2 / RFU, IBTK / Fold change vs veh, IBTK / RFU, ESF1 / Fold change vs veh, ESF1 / Fold change vs veh, TMEM50B / RFU, TAOK1 / Fold change vs veh, TAOK1 / RFU, ACBD3 / Fold change vs veh, ACBD3 / RFU, TMA16 / Fold change vs veh, TMA16 / RFU, RWDD3 / Fold change vs veh, RWDD3 / RFU, BCAT1 / Fold change vs veh, BCAT1 / RFU, EDEM3 / Fold change vs veh, EDEM3 / RFU, TMEM33 / Fold change vs veh, TMEM33 / RFU, WDR75 / Fold change vs veh, WDR75 / RFU, AHCTF1 / Fold change vs veh, AHCTF1 / RFU, TFRC / Fold change vs veh, TFRC / RFU, ZDHHC17 / Fold change vs veh, ZDHHC17 / RFU, NOM1 / Fold change vs veh, NOM1 / RFU, ARL8B / Fold change vs veh, ARL8B / RFU, ZBTB11 / Fold change vs veh, ZBTB11 / RFU, TAMM41 / Fold change vs veh, TAMM41 / RFU, KIAA1704 /// LOC100996395 / Fold change vs veh, KIAA1704 /// LOC100996395 / RFU, ING1 / Fold change vs veh, ING1 / RFU, TRMT61B / Fold change vs veh, TRMT61B / RFU, FUBP3 / Fold change vs veh, FUBP3 / RFU, TP53 / Fold change vs veh, TP53 / RFU, TNKS2 / Fold change vs veh, TNKS2 / RFU, ZFP14 / Fold change vs veh, ZFP14 / RFU, ACTR2 / Fold change vs veh, ACTR2 / RFU, PPP3R1 / Fold change vs veh, PPP3R1 / RFU, PIK3R1 / Fold change vs veh, PIK3R1 / RFU, HNRNPA1 / Fold change vs veh, HNRNPA1 / RFU, RNF170 / Fold change vs veh, RNF170 / RFU, ZNF28 / Fold change vs veh, ZNF28 / RFU, RNGTT / Fold change vs veh, RNGTT / RFU, OGT / Fold change vs veh, OGT / RFU, BRD1 / Fold change vs veh, BRD1 / RFU, MARS / Fold change vs veh, MARS / RFU, ZNF655 / Fold change vs veh, ZNF655 / RFU, FAHD1 / Fold change vs veh, FAHD1 / RFU, BDP1 / Fold change vs veh, BDP1 / RFU, LRRCC1 / Fold change vs veh, LRRCC1 / RFU, ARID1A / Fold change vs veh, ARID1A / RFU, ZNF146 / Fold change vs veh, ZNF146 / RFU, ZNF330 / Fold change vs veh, ZNF330 / RFU, GPN3 / Fold change vs veh, GPN3 / RFU, C9orf123 / Fold change vs veh, C9orf123 / RFU, N4BP2L2 / Fold change vs veh, N4BP2L2 / RFU, ARFIP1 / Fold change vs veh, ARFIP1 / RFU, FAM179B / Fold change vs veh, FAM179B / RFU, BCL10 / Fold change vs veh, BCL10 / RFU, UHRF1BP1L / Fold change vs veh, UHRF1BP1L / RFU, BET1 / Fold change vs veh, BET1 / RFU, CNOT2 / Fold change vs veh, CNOT2 / RFU, ZNF268 / Fold change vs veh, ZNF268 / Fold change vs veh, ZNF507 / RFU, DGCR2 / Fold change vs veh, DGCR2 / RFU, WDSUB1 / Fold change vs veh, WDSUB1 / Fold change vs veh, HSP90B1 /// MIR3652 / RFU, ADSS / Fold change vs veh, ADSS / RFU, GK / Fold change vs veh, GK / RFU, ZNF148 / Fold change vs veh, ZNF148 / RFU, TAF9 / Fold change vs veh, TAF9 / RFU, SLC1A5 / Fold change vs veh, SLC1A5 / RFU, SLMO2 / Fold change vs veh, SLMO2 / RFU, ABCC4 / Fold change vs veh, ABCC4 / RFU, LOC101060439 /// RAP1B / Fold change vs veh, LOC101060439 /// RAP1B / RFU, RFX7 / Fold change vs veh, RFX7 / RFU, GTPBP10 / Fold change vs veh, GTPBP10 / RFU, CNEP1R1 / Fold change vs veh, CNEP1R1 / RFU, BIVM-ERCC5 /// ERCC5 / Fold change vs veh, BIVM-ERCC5 /// ERCC5 / RFU, ILF3 / Fold change vs veh, ILF3 / RFU 11762660_at / Fold change /veh 11762660_at / RFU VCAN (11757783_s_at) / Fold change /veh VCAN (11757783_s_at) / RFU DDX43 (11728927_at) / Fold change /veh DDX43 (11728927_at) / RFU KRT8 (11758188_x_at) / Fold change /veh KRT8 (11758188_x_at) / RFU NKD1 (11759106_at) / Fold change /veh NKD1 (11759106_at) / RFU SRD5A1 (11742802_a_at) / Fold change /veh SRD5A1 (11742802_a_at) / RFU TPSAB1 /// TPSB2 (11721975_s_at) / Fold change /veh TPSAB1 /// TPSB2 (11721975_s_at) / RFU GSTM3 (11746129_a_at) / Fold change /veh GSTM3 (11746129_a_at) / RFU IL23R (11737362_x_at) / Fold change /veh IL23R (11737362_x_at) / RFU TMEM51 (11727254_a_at) / Fold change /veh TMEM51 (11727254_a_at) / RFU PIWIL2 (11732686_x_at) / Fold change /veh PIWIL2 (11732686_x_at) / RFU ORM1 (11744905_x_at) / Fold change /veh ORM1 (11744905_x_at) / RFU CCDC152 (11743942_at) / Fold change /veh CCDC152 (11743942_at) / RFU ECM1 (11717891_a_at) / Fold change /veh ECM1 (11717891_a_at) / RFU IL23R (11748794_a_at) / Fold change /veh IL23R (11748794_a_at) / RFU TNFAIP8L3 (11732012_x_at) / Fold change /veh TNFAIP8L3 (11732012_x_at) / RFU MBOAT4 (11741988_at) / Fold change /veh MBOAT4 (11741988_at) / RFU 11764193_at / Fold change /veh 11764193_at / RFU TMEM53 (11763286_at) / Fold change /veh TMEM53 (11763286_at) / RFU MAGEB2 (11727129_at) / Fold change /veh MAGEB2 (11727129_at) / RFU TMEM200A (11744735_a_at) / Fold change /veh TMEM200A (11744735_a_at) / RFU CCDC152 (11751479_a_at) / Fold change /veh CCDC152 (11751479_a_at) / RFU FAM211A (11726209_a_at) / Fold change /veh FAM211A (11726209_a_at) / RFU RGS16 (11746705_a_at) / Fold change /veh RGS16 (11746705_a_at) / RFU VCAN (11755009_s_at) / Fold change /veh VCAN (11755009_s_at) / RFU RHOB (11743442_s_at) / Fold change /veh RHOB (11743442_s_at) / RFU RGS16 (11720943_a_at) / Fold change /veh RGS16 (11720943_a_at) / RFU RGS16 (11720944_at) / Fold change /veh RGS16 (11720944_at) / RFU, VPS4B / Fold change vs veh, VPS4B / RFU, CREB1 / Fold change vs veh, CREB1 / RFU, DNAJC13 / Fold change vs veh, DNAJC13 / RFU, GNAQ / Fold change vs veh, GNAQ / RFU, CDK5R1 / Fold change vs veh, CDK5R1 / RFU, ZRANB3 / Fold change vs veh, ZRANB3 / RFU, CUL4A / Fold change vs veh, CUL4A / RFU, CCNY / Fold change vs veh, CCNY / RFU, UFL1 / Fold change vs veh, UFL1 / RFU, COG3 / Fold change vs veh, COG3 / RFU, DIAPH2 / Fold change vs veh, DIAPH2 / RFU, SKA2 / Fold change vs veh, SKA2 / RFU, AFF3 / Fold change vs veh, AFF3 / RFU, LMF1 / Fold change vs veh, LMF1 / RFU, IPO11 / Fold change vs veh, IPO11 / RFU, DFFB / Fold change vs veh, DFFB / RFU, FOXP1 / Fold change vs veh, FOXP1 / RFU, CARD8 / Fold change vs veh, CARD8 / RFU, STRN3 / Fold change vs veh, STRN3 / RFU, ADK / Fold change vs veh, ADK / RFU, RASSF2 / Fold change vs veh, RASSF2 / RFU, WIPF1 / Fold change vs veh, WIPF1 / RFU, LARP1B / Fold change vs veh, LARP1B / RFU, RASA1 / Fold change vs veh, RASA1 / RFU, RB1 / Fold change vs veh, RB1 / RFU, PPFIA1 / Fold change vs veh, PPFIA1 / RFU, MAT2A / Fold change vs veh, MAT2A / RFU, CCT5 / Fold change vs veh, CCT5 / RFU, WDR92 / Fold change vs veh, WDR92 / RFU, CUX1 / Fold change vs veh, CUX1 / RFU, TTC7A / Fold change vs veh, TTC7A / RFU, TMEM135 / Fold change vs veh, TMEM135 / RFU, DEPTOR / Fold change vs veh, DEPTOR / RFU, CPM / Fold change vs veh, CPM / RFU, DNAJB6 / Fold change vs veh, DNAJB6 / RFU, CACNA2D3 / Fold change vs veh, CACNA2D3 / RFU, DTX4 / Fold change vs veh, DTX4 / RFU, TFCP2 / Fold change vs veh, TFCP2 / RFU, GMCL1 /// GMCL1P1 / Fold change vs veh, GMCL1 /// GMCL1P1 / RFU, AEBP2 / Fold change vs veh, AEBP2 / RFU, SNHG1 /// SNORD22 /// SNORD25 /// SNORD26 /// SNORD27 /// SNORD28 /// SNORD29 /// SNORD31 / Fold change vs veh, SNHG1 /// SNORD22 /// SNORD25 /// SNORD26 /// SNORD27 /// SNORD28 /// SNORD29 /// SNORD31 / Fold change (Aza/veh), C12orf56 (ProbeSet 11735607_a_at) / Fold change (ACY-1035/veh), C12orf56 (ProbeSet 11735607_a_at) / Fold change (Aza/veh), FGFR1OP (ProbeSet 11751329_s_at) / Fold change (ACY-1035/veh), FGFR1OP (ProbeSet 11751329_s_at) / Fold change (Aza/veh), VPS36 (ProbeSet 11739960_a_at) / Fold change (ACY-1035/veh), VPS36 (ProbeSet 11739960_a_at) / RFU SYPL1 (11715823_x_at) / Fold change /veh SYPL1 (11715823_x_at) / RFU IGFBP7 (11715501_s_at) / Fold change /veh IGFBP7 (11715501_s_at) / RFU REEP3 (11722064_at) / Fold change /veh REEP3 (11722064_at) / RFU IGLL1 (11728026_x_at) / Fold change /veh IGLL1 (11728026_x_at): dose or concentration left out as unconfirmed. To be noted: ProbeSet 11728271_at; LIST B.

As for `Nc1ncn([C@@H]2O[C@H](CO)[C@@H](O)[C@H]2O)c(=O)n1` [azacitidine], the “Fold change vs veh, ZNF330” value was determined as 0.94.
